Results on three compounds are retold here after US12186423B2, “Brightening booster technology and brightening ampule” (MARY KAY INC., priority 2020, dated 2025).

SMILES strings stand for the structures. Values joined by “and” are separate entries in the source; they are usually repeats but may differ in a detail not shown here. Identical values can stand only once.

The subject of series [1] is B16-F1 melanocytes. It is filed as cell-based. The settings on record: mouse. On the procedure: (§1) The endpoint of these assays are a spectrophotometric measurement of melanin production and cellular viability. B16-F1 melanocytes were cultivated to subconfluence at 37° C. in 10% CO2 in T150 tissue culture flasks in standard DMEM growth medium supplemented with 10% fetal bovine serum (Mediatech) and 1% penicillin/streptomycin. Cells in one confluent T150 tissue culture flask were trypsinized and resuspended in DMEM, and 1% of the resuspended cells were seeded in 200 μl total volume DMEM in each well of a 96-well tissue culture plate. For phenol red-free media, 200 mM L-glutamine (20 ml/L) (Mediatech) was also added to the DMEM growth medium. Active ingredients were diluted to 1% in DMEM growth medium. Once cells reached about 20% confluence, cells were treated with any one of the active ingredients, combination of ingredients, or compositions having said combinations disclosed in the specification by replacing the DMEM growth media with 200 μl DMEM growth media containing diluted active ingredients. Cells were also treated with 1 mM kojic acid as a positive control. Cells were then incubated for 5-6 days at 37° C. in 10% CO2. Following incubation, melanin secretion was measured by absorbance of the whole plate at 405 nm (OD 405) (whole plate reading). […] Percent viability of the cell samples was calculated using the following formula: % Viability=(Mean OD 490 of Sample/Mean OD 490 of Control). […] Percent change in pigmentation of the cell samples was calculated using the following formula: % Change=% pigmentation of Sample−% pigmentation of Control.

For series [2], the system named is B16-F1 melanocytes. Nature of the series: B16 pigmentation assay (melanin production, absorbance at 405 nm). It counts as cell-based, mouse. As to conditions: for OD 405 (single readings of triplicate): active ingredients diluted to 1% in DMEM, whole plate reading; for OD 405 (single readings of triplicate) / OD 405 AVG: kojic acid 1 mM, 5-6 days; for OD 405 AVG: average absorbance at 405 nm of triplicate, actives diluted to 1%; for % INHIBITION: vs untreated cells; for % INHIBITION / % Inhibition (change in pigmentation): negative value = less pigmentation; for Melanogenesis (OD 405, single readings of triplicate): alone and combined, kojic acid positive control; for Melanogenesis AVG (OD 405): average of triplicate; for % Inhibition (change in pigmentation): viability-corrected, vs untreated. Here is the method: as §1, with “Melanogenesis is the process by which melanocytes produce melanin, a naturally produced pigment that imparts color to skin, hair, and eyes. Inhibiting melanogenesis is beneficial to prevent skin darkening and lighten dark spots associated with aging. […] The” for “The”, “Active ingredients were diluted to 1% in DMEM growth medium.” left out

[3] abbreviates: second experiment, 2% niacinamide, 2% navy bean, 0.2% ferulic acid.

With `NC(=O)c1cccnc1` [Niacinamide (B3), Niacinamide], in the series on B16-F1 melanocytes [1], the % Viability was determined as 100% and the “Viability AVG (OD 490)” value is reported as 1.725. For the same compound, in the series with B16-F1 melanocytes [2] (first experiment), the “OD 405 (single readings of triplicate)” value was 0.775 and 0.766 and 0.78; the “OD 405 AVG” value is reported as 0.774; the “% INHIBITION” value is listed as 3.941%. In the series on B16-F1 melanocytes [2] (setting [3]), the “Melanogenesis (OD 405, single readings of triplicate)” value is 0.775 and 0.766 and 0.78; the “Melanogenesis AVG (OD 405)” value was 0.774. In the series with B16-F1 melanocytes [2] (second experiment), the “% Inhibition (change in pigmentation)” value was 3.58%.
Consider `COc1cc(/C=C/C(=O)O)ccc1O` [Ferulic Acid (FA), Ferulic acid], for which, in the series on B16-F1 melanocytes [1], the % Viability was found to be 98.4% and the “Viability AVG (OD 490)” value is 1.692. Besides, in the series on B16-F1 melanocytes [2] (first experiment), the “effect on pigmentation / melanin secretion (in words)” value is given as “inhibited pigmentation to some degree”; the “OD 405 (single readings of triplicate)” value is 0.367 and 0.384 and 0.391; the “OD 405 AVG” value is 0.381; the “% INHIBITION” value was −48.858%. In addition, the “inhibited pigmentation / melanin secretion” value in the series with B16-F1 melanocytes [2] (second experiment, 2% navy bean, 0.2% ferulic acid, 2% niacinamide) worked out at 48.03%. Also, in the series on B16-F1 melanocytes [2] (setting [3]), the “Melanogenesis (OD 405, single readings of triplicate)” value was 0.367 and 0.384 and 0.391; the “Melanogenesis AVG (OD 405)” value was determined as 0.381. For the same compound, the “% Inhibition (change in pigmentation)” value with B16-F1 melanocytes [2] (second experiment) is recorded as −48.03%.
As to `O=c1cc(CO)occ1O` [Kojic Acid, kojic acid], in the series with B16-F1 melanocytes [1], the % Viability is 98.1% and the “Viability AVG (OD 490)” value was 1.687. Also, the “OD 405 (single readings of triplicate)” value with B16-F1 melanocytes [2] (first experiment, listed as CONTROL) is 0.31 and 0.333 and 0.34. In the series with B16-F1 melanocytes [2] (first experiment), the “OD 405 AVG” value is on record as 0.328 and the “% INHIBITION” value is given as −55.979%. In addition, in the series on B16-F1 melanocytes [2] (setting [3]), the “Melanogenesis (OD 405, single readings of triplicate)” value is 0.31 and 0.333 and 0.34; the “Melanogenesis AVG (OD 405)” value was 0.328. In addition, the “% Inhibition (change in pigmentation)” value with B16-F1 melanocytes [2] (second experiment) is −55.14%.
